Data: publication PMC7391767, “Molecular mechanisms underlying menthol binding and activation of TRPM8 ion channel” (Nature Communications, 2020)
Values joined by “and” are separate entries in the source; they are usually repeats but may differ in a detail not shown here. Identical values can stand only once.

What was measured:
Format in all cases: cell-based
Design in all cases: Shifts in ANAP emission, Ave: unit: nm
ANAP-incorporated TRPM8 [1] = target: T1, ANAP-incorporated TRPM8 (Mus musculus, UniProt Q8R4D5, A875X)
T1 construct: expressed in transfected cells; host or cells: HEK293 cells, co-transfected with the pANAP vector
Experimental: (§1) As fluorescence emission peak of ANAP shifts to a longer wavelength in more hydrophilic environment, we measured the shift in ANAP emission peak to report conformational changes. Fluorescence properties of ANAP may also be affected by other factors such as temperature and pH[31], so we performed our ANAP experiments always at room temperature (22 ± 1°C). To control for changes in solution pH, we added 3 mM HEPES in ANAP imaging solution to buffer the pH at 7.2. We genetically integrated ANAP into a specific site on TRPM8 with special tRNA and synthetase encoded by pANAP vector (Fig. 5d).
(§2) L-ANAP methyl ester was purchased from AsisChem. pANAP vector was purchased from Addgene. ANAP was incorporated into TRPM8 by introducing a TAG amber stop codon mutation as previously reported. Briefly, after co-transfection of both TRPM8 and pANAP vectors, ANAP was directly added to the culture medium to the final concentration of 20 µM. After 1–2 days, ANAP-containing culture medium was completely changed. Cells were further cultured in ANAP-free medium overnight before experiments.
(§3) ANAP fluorescence was excited by the Ar laser with a 375/28 excitation filter, a T400lp dichroic mirror, and a 435LP emission filter on an inverted fluorescence microscope (Nikon TE2000-U) using a ×40 oil-immersion objective (NA 1.3). Emission spectrum of ANAP was imaged with an Acton SpectraPro 2150i spectrograph in conjunction with an optiMOS CCD camera (Qimaging, USA). We determined the ANAP emission peak value by fitting the emission spectrum with a skewed Gauss distribution in Igor Pro version 6.1 (WaveMatrix), and then the difference in emission peak values measured in the absence and presence of menthol was reported as the shift of ANAP emission.

ANAP-incorporated TRPM8 [2] = target: T2, ANAP-incorporated TRPM8 (Mus musculus, UniProt Q8R4D5, C1006X); conditions: ANAP incorporation site C1006; average shift, menthol activated vs resting state
T2 construct: expressed in transfected cells; host or cells: HEK293 cells, co-transfected with the pANAP vector
Experimental: as §1, §2, §3

ANAP-incorporated TRPM8 [3] = target: T3, ANAP-incorporated TRPM8 (Mus musculus, UniProt Q8R4D5, F847X); conditions: ANAP incorporation site F847
T3 construct: expressed in transfected cells; host or cells: HEK293 cells, co-transfected with the pANAP vector
Experimental: as §1, §2, §3

ANAP-incorporated TRPM8 [4] = target: T4, ANAP-incorporated TRPM8 (Mus musculus, UniProt Q8R4D5, I962X); conditions: ANAP incorporation site I962, menthol activated vs resting state
T4 construct: expressed in transfected cells; host or cells: HEK293 cells, co-transfected with the pANAP vector
Experimental: as §1, §2, §3

ANAP-incorporated TRPM8 [5] = target: T5, ANAP-incorporated TRPM8 (Mus musculus, UniProt Q8R4D5, L817X); conditions: ANAP incorporation site L817; average shift, menthol activated vs resting state
T5 construct: expressed in transfected cells; host or cells: HEK293 cells, co-transfected with the pANAP vector
Experimental: as §1, §2, §3

ANAP-incorporated TRPM8 [6] = target: T6, ANAP-incorporated TRPM8 (Mus musculus, UniProt Q8R4D5, L864X); conditions: ANAP incorporation site L864
T6 construct: expressed in transfected cells; host or cells: HEK293 cells, co-transfected with the pANAP vector
Experimental: as §1, §2, §3

ANAP-incorporated TRPM8 [7] = target: T7, ANAP-incorporated TRPM8 (Mus musculus, UniProt Q8R4D5, N789X); conditions: ANAP incorporation site N789; average shift, menthol activated vs resting state
T7 construct: expressed in transfected cells; host or cells: HEK293 cells, co-transfected with the pANAP vector
Experimental: as §1, §2, §3

ANAP-incorporated TRPM8 [8] = target: T8, ANAP-incorporated TRPM8 (Mus musculus, UniProt Q8R4D5, P734X); conditions: ANAP incorporation site P734; average shift, menthol activated vs resting state
T8 construct: expressed in transfected cells; host or cells: HEK293 cells, co-transfected with the pANAP vector
Experimental: as §1, §2, §3

ANAP-incorporated TRPM8 [9] = target: T9, ANAP-incorporated TRPM8 (Mus musculus, UniProt Q8R4D5, P952X); conditions: ANAP incorporation site P952; average shift, menthol activated vs resting state
T9 construct: expressed in transfected cells; host or cells: HEK293 cells, co-transfected with the pANAP vector
Experimental: as §1, §2, §3

ANAP-incorporated TRPM8 [10] = target: T10, ANAP-incorporated TRPM8 (Mus musculus, UniProt Q8R4D5, P958X)
T10 construct: expressed in transfected cells; host or cells: HEK293 cells, co-transfected with the pANAP vector
Experimental: as §1, §2, §3

ANAP-incorporated TRPM8 [11] = target: T11, ANAP-incorporated TRPM8 (Mus musculus, UniProt Q8R4D5, S819X); conditions: ANAP incorporation site S819; average shift, menthol activated vs resting state
T11 construct: expressed in transfected cells; host or cells: HEK293 cells, co-transfected with the pANAP vector
Experimental: as §1, §2, §3

ANAP-incorporated TRPM8 [12] = target: T12, ANAP-incorporated TRPM8 (Mus musculus, UniProt Q8R4D5, S824X)
T12 construct: expressed in transfected cells; host or cells: HEK293 cells, co-transfected with the pANAP vector
Experimental: as §1, §2, §3

ANAP-incorporated TRPM8 [13] = target: T13, ANAP-incorporated TRPM8 (Mus musculus, UniProt Q8R4D5, T795X); conditions: ANAP incorporation site T795; average shift, menthol activated vs resting state
T13 construct: expressed in transfected cells; host or cells: HEK293 cells, co-transfected with the pANAP vector
Experimental: as §1, §2, §3

ANAP-incorporated TRPM8 [14] = target: T14, ANAP-incorporated TRPM8 (Mus musculus, UniProt Q8R4D5, Y787X); conditions: ANAP incorporation site Y787, menthol activated vs resting state
T14 construct: expressed in transfected cells; host or cells: HEK293 cells, co-transfected with the pANAP vector
Experimental: as §1, §2, §3

ANAP-incorporated TRPM8 [15] = target: T15, ANAP-incorporated TRPM8 (Mus musculus, UniProt Q8R4D5, Y924X); conditions: ANAP incorporation site Y924
T15 construct: expressed in transfected cells; host or cells: HEK293 cells, co-transfected with the pANAP vector
Experimental: as §1, §2, §3

ANAP-incorporated TRPM8 [16] = target: T16, ANAP-incorporated TRPM8 (Mus musculus, UniProt Q8R4D5, Y999X); conditions: ANAP incorporation site Y999; average shift, menthol activated vs resting state
T16 construct: expressed in transfected cells; host or cells: HEK293 cells, co-transfected with the pANAP vector
Experimental: as §1, §2, §3

[17] = average shift, menthol activated vs resting state

In the case of `CC(C)[C@@H]1CC[C@@H](C)C[C@H]1O` [menthol, (−)-menthol], the “Shifts in ANAP emission, Ave” value (ANAP-incorporated TRPM8 [1]; ANAP at A875) is reported as 6.61, the “shift of ANAP emission peak” value (ANAP-incorporated TRPM8 [1]; ANAP at A875 site, redshifted, menthol-induced (0.5 mM), n = 5) is reported as 6.6 ± 0.4 nm and the Shifts_ave (ANAP-incorporated TRPM8 [1]; ANAP incorporation site A875, average shift, menthol activated vs resting state) is reported as 6.61 nm. For the same molecule, the Shifts in emission (ANAP-incorporated TRPM8 [1]; ANAP incorporation site A875, menthol activated vs resting state, single measurement) was 6.25 nm and 6.04 nm and 7.45 nm and 7.64 nm and 5.66 nm, the “Emission Peak at menthol activated state” value (ANAP-incorporated TRPM8 [1]; ANAP incorporation site A875, single measurement) was 495.85 nm and 493.43 nm and 494.62 nm and 492.72 nm and 492.66 nm and the Shifts_ave (ANAP-incorporated TRPM8 [2]) was 1.09 nm. The Shifts_ave (ANAP-incorporated TRPM8 [3]; [17]) was -1.40 nm, the “Emission Peak at menthol activated state” value (ANAP-incorporated TRPM8 [3]; single measurement) was 476.81 nm and 476.91 nm and 474.92 nm and 474.75 nm and 473.64 nm and the Shifts_ave (ANAP-incorporated TRPM8 [4]; average shift) was 1.07 nm. The Shifts in emission (ANAP-incorporated TRPM8 [4]; single measurement) was 1.34 nm and 1.4 nm and 0.73 nm and 0.79 nm, the Shifts_ave (ANAP-incorporated TRPM8 [5]) was 0.801 nm and the Shifts_ave (ANAP-incorporated TRPM8 [6]; [17]) was 1.37 nm. For the same molecule, the Shifts in emission (ANAP-incorporated TRPM8 [6]; menthol activated vs resting state, single measurement) was 1.34 nm and 1.42 nm and 1.82 nm and 1.04 nm and 1.21 nm, the “Emission Peak at menthol activated state” value (ANAP-incorporated TRPM8 [6]; single measurement) was 481.75 nm and 488.11 nm and 492.24 nm and 485.58 nm and 489.77 nm and the Shifts_ave (ANAP-incorporated TRPM8 [7]) was 0.79 nm. The Shifts_ave (ANAP-incorporated TRPM8 [8]) was 1.477 nm, the Shifts_ave (ANAP-incorporated TRPM8 [9]) was 1.08 nm and the “Shifts in ANAP emission, Ave” value (ANAP-incorporated TRPM8 [10]; ANAP at P958) was 2.76. For the same molecule, the Shifts_ave (ANAP-incorporated TRPM8 [10]; ANAP incorporation site P958, average shift, menthol activated vs resting state) was 2.32 nm, the Shifts in emission (ANAP-incorporated TRPM8 [10]; ANAP incorporation site P958, menthol activated vs resting state, single measurement) was 2.11 nm and 2.76 nm and 2.75 nm and 1.64 nm and the Shifts_ave (ANAP-incorporated TRPM8 [11]) was 0.65 nm. The “Shifts in ANAP emission, Ave” value (ANAP-incorporated TRPM8 [12]; ANAP at S824) was 2.89, the Shifts_ave (ANAP-incorporated TRPM8 [12]; ANAP incorporation site S824, average shift, menthol activated vs resting state) was 2.90 nm and the “Emission Peak at menthol activated state” value (ANAP-incorporated TRPM8 [12]; ANAP incorporation site S824, single measurement) was 488.12 nm and 482.56 nm and 490.74 nm. The Shifts_ave (ANAP-incorporated TRPM8 [13]) was 1.996 nm, the Shifts_ave (ANAP-incorporated TRPM8 [14]; average shift) was 1.928 nm and the Shifts in emission (ANAP-incorporated TRPM8 [14]; single measurement) was 1.56 nm and 1.57 nm and 2.4 nm and 1.35 nm and 2.69 nm and 2 nm. The Shifts_ave (ANAP-incorporated TRPM8 [15]; [17]) was -0.72 nm, the “Emission Peak at menthol activated state” value (ANAP-incorporated TRPM8 [15]; single measurement) was 483.26 nm and 481.78 nm and 474.51 nm and 486.54 nm and the Shifts_ave (ANAP-incorporated TRPM8 [16]) was 0.79 nm.
